Results from ChEMBL document CHEMBL3792365, “Dioxol and dihydrodioxin analogs of 2- and 3-phenylacetonitriles as potent anti-cancer agents with nanomolar activity against a variety of human cancer cells” (2016).

Assays:
Type in all cases: functional
[1] = Growth inhibition of human UACC62 cells at 10 uM after 48 hrs by sulforhodamine B assay; conditions: UACC-62, 48 h, values are per cent of control
[2] = tested on: SN12C; assay: Growth inhibition of human SN12C cells at 10 uM after 48 hrs by sulforhodamine B assay; conditions: values are per cent of control
[3] = Growth inhibition of human OVCAR4 cells at 10 uM after 48 hrs by sulforhodamine B assay; conditions: OVCAR-4, 48 h, values are per cent of control
[4] = tested on: NCI-H23; assay: Growth inhibition of human NCI-H23 cells at 10 uM after 48 hrs by sulforhodamine B assay; conditions: NCI-H23, 48 h, values are per cent of control
[5] = Growth inhibition of human SW620 cells at 10 uM after 48 hrs by sulforhodamine B assay; conditions: SW-620, 48 h, values are per cent of control
[6] = Growth inhibition of human SKOV3 cells at 10 uM after 48 hrs by sulforhodamine B assay; conditions: SK-OV-3, 48 h, values are per cent of control
[7] = tested on: 786-0; assay: Growth inhibition of human 786-0 cells at 10 uM after 48 hrs by sulforhodamine B assay; conditions: 786-0, 48 h, values are per cent of control
[8] = Growth inhibition of human SF295 cells at 10 uM after 48 hrs by sulforhodamine B assay; conditions: SF-295, 48 h, values are per cent of control
[9] = Growth inhibition of human OVCAR8 cells at 10 uM after 48 hrs by sulforhodamine B assay; conditions: OVCAR-8, 48 h, values are per cent of control
[10] = tested on: MDA-MB-231; assay: Growth inhibition of human MDA-MB-231 cells at 10 uM after 48 hrs by sulforhodamine B assay; conditions: MDA-MB-231, 48 h, values are per cent of control
[11] = tested on: SK-MEL-28; assay: Growth inhibition of human SK-MEL-28 cells at 10 uM after 48 hrs by sulforhodamine B assay; conditions: SK-MEL-28, 48 h, values are per cent of control
[12] = tested on: M14; assay: Growth inhibition of human M14 cells at 10 uM after 48 hrs by sulforhodamine B assay; conditions: M14, 48 h, values are per cent of control
[13] = Growth inhibition of human Hs 578T cells at 10 uM after 48 hrs by sulforhodamine B assay; conditions: values are per cent of control
[14] = Growth inhibition of human LOXIMVI cells at 10 uM after 48 hrs by sulforhodamine B assay; conditions: LOX IMVI, values are per cent of control
[15] = Growth inhibition of human RXF393 cells at 10 uM after 48 hrs by sulforhodamine B assay; conditions: RXF 393, 48 h, values are per cent of control
[16] = tested on: ACHN; assay: Growth inhibition of human ACHN cells at 10 uM after 48 hrs by sulforhodamine B assay; conditions: values are per cent of control
[17] = Growth inhibition of human UO31 cells at 10 uM after 48 hrs by sulforhodamine B assay; conditions: UO-31, 48 h, values are per cent of control
[18] = Growth inhibition of human SF268 cells at 10 uM after 48 hrs by sulforhodamine B assay; conditions: SF-268, 48 h, values are per cent of control
[19] = Growth inhibition of human Caki1 cells at 10 uM after 48 hrs by sulforhodamine B assay; conditions: CAKI-1, 48 h, values are per cent of control
[20] = tested on: K562; assay: Growth inhibition of human K562 cells at 10 uM after 48 hrs by sulforhodamine B assay; conditions: K562, 48 h, values are per cent of control
[21] = tested on: T47D; assay: Growth inhibition of human T47D cells at 10 uM after 48 hrs by sulforhodamine B assay; conditions: values are per cent of control
[22] = tested on: A498; assay: Growth inhibition of human A498 cells at 10 uM after 48 hrs by sulforhodamine B assay; conditions: A498, 48 h, values are per cent of control
[23] = tested on: NCI-H322M; assay: Growth inhibition of human NCI-H322M cells at 10 uM after 48 hrs by sulforhodamine B assay; conditions: values are per cent of control
[24] = Growth inhibition of human HCT116 cells at 10 uM after 48 hrs by sulforhodamine B assay; conditions: HCT-116, 48 h, values are per cent of control
[25] = Growth inhibition of human HCC2998 cells at 10 uM after 48 hrs by sulforhodamine B assay; conditions: HCC 2998, 48 h, values are per cent of control
[26] = Growth inhibition of human DU145 cells at 10 uM after 48 hrs by sulforhodamine B assay; conditions: DU-145, 48 h, values are per cent of control
[27] = tested on: NCI-H522; assay: Growth inhibition of human NCI-H522 cells at 10 uM after 48 hrs by sulforhodamine B assay; conditions: NCI-H522, 48 h, values are per cent of control
[28] = Growth inhibition of human NCI-ADR-RES cells at 10 uM after 48 hrs by sulforhodamine B assay; conditions: values are per cent of control
[29] = Growth inhibition of human IGROV1 cells at 10 uM after 48 hrs by sulforhodamine B assay; conditions: IGROV-1, 48 h, values are per cent of control
[30] = tested on: HT-29; assay: Growth inhibition of human HT-29 cells at 10 uM after 48 hrs by sulforhodamine B assay; conditions: HT-29, 48 h, values are per cent of control
[31] = tested on: SK-MEL-2; assay: Growth inhibition of human SK-MEL-2 cells at 10 uM after 48 hrs by sulforhodamine B assay; conditions: SK-MEL-2, 48 h, values are per cent of control
[32] = Growth inhibition of human TK10 cells at 10 uM after 48 hrs by sulforhodamine B assay; conditions: TK-10, 48 h, values are per cent of control
[33] = tested on: SK-MEL-5; assay: Growth inhibition of human SK-MEL-5 cells at 10 uM after 48 hrs by sulforhodamine B assay; conditions: SK-MEL-5, 48 h, values are per cent of control
[34] = Growth inhibition of human SNB75 cells at 10 uM after 48 hrs by sulforhodamine B assay; conditions: SNB-75, 48 h, values are per cent of control
[35] = tested on: A549; assay: Growth inhibition of human A549/ATCC cells at 10 uM after 48 hrs by sulforhodamine B assay; conditions: A549, 48 h, values are per cent of control
[36] = Growth inhibition of human SF539 cells at 10 uM after 48 hrs by sulforhodamine B assay; conditions: SF-539, 48 h, values are per cent of control
[37] = Growth inhibition of human COLO205 cells at 10 uM after 48 hrs by sulforhodamine B assay; conditions: COLO 205, 48 h, values are per cent of control
[38] = tested on: NCI-H460; assay: Growth inhibition of human NCI-H460 cells at 10 uM after 48 hrs by sulforhodamine B assay; conditions: NCI-H460, 48 h, values are per cent of control
[39] = Growth inhibition of human OVCAR5 cells at 10 uM after 48 hrs by sulforhodamine B assay; conditions: OVCAR-5, 48 h, values are per cent of control
[40] = Growth inhibition of human HCT15 cells at 10 uM after 48 hrs by sulforhodamine B assay; conditions: HCT-15, 48 h, values are per cent of control

Structure (SMILES)	growth, % of control at 10 µM [1]	growth, % of control at 10 µM [2]	growth, % of control at 10 µM [3]	growth, % of control at 10 µM [4]	growth, % of control at 10 µM [5]	growth, % of control at 10 µM [6]	growth, % of control at 10 µM [7]	growth, % of control at 10 µM [8]	growth, % of control at 10 µM [9]	growth, % of control at 10 µM [10]	growth, % of control at 10 µM [11]	growth, % of control at 10 µM [12]	growth, % of control at 10 µM [13]	growth, % of control at 10 µM [14]	growth, % of control at 10 µM [15]	growth, % of control at 10 µM [16]	growth, % of control at 10 µM [17]	growth, % of control at 10 µM [18]	growth, % of control at 10 µM [19]	growth, % of control at 10 µM [20]	other results
COc1ccc(/C=C(\C#N)c2ccc3c(c2)OCO3)c(Cl)c1OC	56.6%	83.5%	98.6%	85%	62.3%	89.2%	84.8%	91.1%	100%	82.3%	91%	72.4%	81.9%	77.3%	78.3%	92.3%	74.9%	98.2%	79.3%	39.2%	growth, % of control at 10 µM [21]: 65.1%; growth, % of control at 10 µM [22]: 72.5%; growth, % of control at 10 µM [23]: 97.8%; growth, % of control at 10 µM [24]: 71.4%; growth, % of control at 10 µM [25]: 76.9%; growth, % of control at 10 µM [26]: 104%; growth, % of control at 10 µM [27]: 66%; growth, % of control at 10 µM [28]: 60.5%; growth, % of control at 10 µM [29]: 77.1%; growth, % of control at 10 µM [30]: 70.3%; growth, % of control at 10 µM [31]: 80.1%; growth, % of control at 10 µM [32]: 87.6%; growth, % of control at 10 µM [33]: 85%; growth, % of control at 10 µM [34]: 73.5%; growth, % of control at 10 µM [35]: 84.7%; growth, % of control at 10 µM [36]: 91.8%; growth, % of control at 10 µM [37]: 85%; growth, % of control at 10 µM [38]: 92.6%; growth, % of control at 10 µM [39]: 92.8%; growth, % of control at 10 µM [40]: 63.9%
COc1cc(/C(C#N)=C/c2ccc3c(c2)OCCO3)cc(OC)c1OC	45.4%	34.5%	44.9%	20.7%	25.2%	17.6%	14.8%	-8%	10.4%	13.7%	63%	5.7%	18.7%	24.7%	41.8%	34.4%	23.9%	24.6%	20%	7.5%	growth, % of control at 10 µM [21]: 84.4%; growth, % of control at 10 µM [22]: -11%; growth, % of control at 10 µM [23]: 24.2%; growth, % of control at 10 µM [24]: -12.3%; growth, % of control at 10 µM [25]: 14.9%; growth, % of control at 10 µM [26]: 6.7%; growth, % of control at 10 µM [27]: -27%; growth, % of control at 10 µM [28]: 17%; growth, % of control at 10 µM [29]: 25.5%; growth, % of control at 10 µM [30]: 0.4%; growth, % of control at 10 µM [31]: 24.1%; growth, % of control at 10 µM [32]: 48.5%; growth, % of control at 10 µM [33]: -38%; growth, % of control at 10 µM [34]: 17.1%; growth, % of control at 10 µM [35]: 21.1%; growth, % of control at 10 µM [36]: 2.5%; growth, % of control at 10 µM [37]: -74.4%; growth, % of control at 10 µM [38]: 5.2%; growth, % of control at 10 µM [39]: 49.1%; growth, % of control at 10 µM [40]: 16.5%
